The source of these data is patent US7713994B2 (Wyeth LLC, priority 2005, dated 2010).

The term IC50 denotes the concentration that gives 50% inhibition.

In this test the target is T1, cyclin D1/cdk 4 enzyme (Homo sapiens, UniProt P11802).
T1 construct: made in house; host or cells: Sf9 insect cells, recombinant baculovirus
T1 sequence (P11802 whole entry, species assumed): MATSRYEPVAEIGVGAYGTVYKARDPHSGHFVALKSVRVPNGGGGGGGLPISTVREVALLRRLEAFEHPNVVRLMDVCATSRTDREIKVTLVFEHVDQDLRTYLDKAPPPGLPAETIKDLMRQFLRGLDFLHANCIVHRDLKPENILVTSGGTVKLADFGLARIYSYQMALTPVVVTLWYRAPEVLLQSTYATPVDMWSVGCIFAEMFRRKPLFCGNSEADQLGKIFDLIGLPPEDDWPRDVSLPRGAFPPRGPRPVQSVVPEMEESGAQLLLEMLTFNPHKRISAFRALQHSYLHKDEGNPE
T1 sequence (P24385 whole entry partner, species assumed): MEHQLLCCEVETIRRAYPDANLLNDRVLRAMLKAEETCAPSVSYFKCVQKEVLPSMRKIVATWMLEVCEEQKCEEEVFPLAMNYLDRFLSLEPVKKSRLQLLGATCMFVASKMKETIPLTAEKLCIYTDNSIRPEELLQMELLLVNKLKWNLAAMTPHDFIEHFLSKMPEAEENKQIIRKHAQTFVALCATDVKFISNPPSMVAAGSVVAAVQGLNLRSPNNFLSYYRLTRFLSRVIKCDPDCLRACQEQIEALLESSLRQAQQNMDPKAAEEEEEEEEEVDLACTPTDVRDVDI
Description: CDK4 ELISA kinase assay (phospho-Rb ser 795 detection). The class given is biochemical. The conditions noted are these: In Vitro Enzyme Assay, cyclin D1/cdk 4, read-out: CDK4 IC50. How it is done: • 1. High-binding ELISA microtiter plates (Costar) were coated with 40 μl of the kinase substrate (GST fusion of C-terminal fragment of the retinoblastoma susceptibility gene product) diluted to 10 μg/ml in tris-buffered saline (TBS), overnight at 4° C. • 2. Non-specific binding sites were blocked for 1 hour at 4° C. with Superblock in TBS (Pierce), and the plates rinsed with water. • 3. For the screen, 1.5 μl of test compound (200 μg/ml stock in 20% DMSO/20 mM HEPES, pH 7.5) was added to each well. Final dose of the test compound in the assay was 10 ug/ml. […] The kinase reaction (30 μl) was dispensed into each well. Reactions contained 200 μM ATP, 0.5 mg/ml bovine serum albumin (BSA; Sigma), and 0.5 μl partially purified cyclin D1/cdk 4 enzyme*. The enzyme complex is expressed in insect cells (Sf9) infected with recombinant baculovirus and partially purified using ammonium sulfate fractionation. Reaction volumes were adjusted to 30 μl with kinase assay buffer (50 mM HEPES, pH 7.5, 10 mM MgCl2, 5% glycerol, 10 mM 2-mercaptoethanol). • *: For CDK2 assay, 1.0 μl cyclin E/CDK2 enzyme (diluted 1:1000 in kinase assay buffer) was used. The enzyme is isolated from insect cells (Sf9) infected with recombinant baculovirus and partially purified using ammonium sulfate fractionation. For CDK1 assay, 0.08 μl cyclin B/CDK1 enzyme [New England BioLabs; the enzyme is isolated from insect cells (Sf9) infected with recombinant baculovirus carrying human cdc 2 and human cyclin B] was used.
[…] • 5. Plates were incubated at 30° C. for 1 hour. • 6. The reaction mixture was removed by aspiration and replaced with 250 μl TBS containing 0.1% Tween-20 and 5% nonfat dry milk (blocking buffer). The plates were incubated at 4° C. for 1 hour. • 7. The blocking buffer was removed and replaced with 50 μl of the primary antibody [anti-phospho-Rb ser 795 (New England BioLabs) diluted 1:1000 in blocking buffer]. Incubation was at 4° C. for 16-20 hours. • 8. The wells were rinsed 3 times with 250 μl of TBS containing 0.1% Tween-20 followed by the addition of 50 μl of secondary antibody [anti-rabbit IgG conjugated to horseradish peroxidase (Amersham Life Science) diluted 1:1000 in blocking buffer]. • 9. After a 1 hour incubation at room temperature, the wells were rinsed 3 times with 250 μl of TBS/0.1% Tween 20. • 10. TMB (3,3′,5,5′-tetramethylbenzidine dihydrochloride) substrate solution (100 μl; Pierce) was added to each well and the color development reaction allowed to proceed 5-10 minutes at room temperature with shaking. The reaction was stopped by the addition of 2N sulfuric acid (100 μl) and the absorbance values read at 450 nm in a microplate reader (Molecular Devices). Analysis of Results: • 1. The percentage of the absorbance value in wells containing the test compound relative to control wells (no test agent) was determined. • 2. IC50 values of selected compounds were determined from inhibition curves, after subtracting background values (no substrate).
A general note: ELISA stands for enzyme-linked immunosorbent assay.
As to “4-({[6-(3-Cyano-phenyl)-1,3-dioxo-2,3-dihydro-1H-isoquinolin-4-ylidenemethyl]-amino}-methyl)-benzenesulfonamide [Example 756]”, the IC50 is 20.2 µM.

As for “6-[2-(4-Fluoro-phenyl)-vinyl]-4-{[4-(4-methyl-piperazin-1-yl)-phenylamino]-methylene}-4H-isoquinoline-1,3-dione [Example 731]”, the half-inhibitory concentration (IC50) is 45.2 µM.

Consider `NS(=O)(=O)c1ccc(CNC=C2C(=O)NC(=O)c3ccccc32)cc1` [Example 540, 4-{[(1,3-Dioxo-2,3-dihydro-1H-isoquinolin-4-ylidenemethyl)-amino]-methyl}-benzenesulfonamide], for which the IC50 came out at 19.7 µM.

For the compound `O=C1NC(=O)c2ccccc2C1=CNc1ccccc1OC(F)(F)F` [Example 541, 4-[(2-Trifluoromethoxy-phenylamino)-methylene]-4H-isoquinoline-1,3-dione], the IC50 turned out to be 37.1 µM.

Consider `O=C1NC(=O)c2ccccc2C1=CNc1cccc(C(=O)O)c1` [Example 542, 3-[(1,3-Dioxo-2,3-dihydro-1H-isoquinolin-4-ylidenemethyl)-amino]-benzoic acid], for which the IC50 stood at 34.8 µM.

`CCN(CC)CCNC(=O)c1ccc(NC=C2C(=O)NC(=O)c3ccccc32)cc1` [Example 543, N-(2-Diethylamino-ethyl)-4-[(1,3-dioxo-2,3-dihydro-1H-isoquinolin-4-ylidenemethyl)-amino]-benzamide]: the IC50 was 42.7 µM.

Consider `O=C1NC(=O)c2ccccc2C1=CNCCc1ccc(O)c(O)c1` [Example 544, 4-{[2-(3,4-Dihydroxy-phenyl)-ethylamino]-methylene}-4H-isoquinoline-1,3-dione], for which the IC50 was 16.2 µM.

Consider `O=C(O)C(=O)Nc1ccc(NC=C2C(=O)NC(=O)c3ccccc32)cc1` [Example 546, N-{4-[(1,3-Dioxo-2,3-dihydro-1H-isoquinolin-4-ylidenemethyl)-amino]-phenyl}-oxalamic acid], for which the IC50 was determined as 20 µM.

Take `O=C(O)CSc1ccc(NC=C2C(=O)NC(=O)c3ccccc32)cc1` [Example 548, {4-[(1,3-Dioxo-2,3-dihydro-1H-isoquinolin-4-ylidenemethyl)-amino]-phenylsulfanyl}-acetic acid]: the 50% inhibitory concentration (IC50) stood at 35.3 µM.

As for `Cc1nnc(NS(=O)(=O)c2ccc(NC=C3C(=O)NC(=O)c4ccccc43)cc2)s1` [Example 549, 4-[(1,3-Dioxo-2,3-dihydro-1H-isoquinolin-4-ylidenemethyl)-amino]-N-(5-methyl-[1,3,4]thiadiazol-2-yl)-benzenesulfonamide], the IC50 is 40.2 µM.

`O=C1NC(=O)c2ccccc2C1=CNc1ccccc1-c1nc2ccccc2[nH]1` [Example 551, 4-{[2-(1H-Benzoimidazol-2-yl)-phenylamino]-methylene}-4H-isoquinoline-1,3-dione]: the half-inhibitory concentration (IC50) is 14.9 µM.

For `O=C1NC(=O)c2ccccc2C1=CNNc1cccc(C(=O)O)c1` [Example 552, 3-[N′-(1,3-Dioxo-2,3-dihydro-1H-isoquinolin-4-ylidenemethyl)-hydrazino]-benzoic acid], the half-inhibitory concentration (IC50) was determined as 32.2 µM.

Regarding `Cc1nc(NS(=O)(=O)c2ccc(NC=C3C(=O)NC(=O)c4ccccc43)cc2)oc1C` [Example 553, N-(4,5-Dimethyl-oxazol-2-yl)-4-[(1,3-dioxo-2,3-dihydro-1H-isoquinolin-4-ylidenemethyl)-amino]-benzenesulfonamide], the 50% inhibitory concentration (IC50) came to 23.7 µM.

Take `CC(=O)N(C)c1ccc(NC=C2C(=O)NC(=O)c3ccccc32)cc1` [Example 554, N-{4-[(1,3-Dioxo-2,3-dihydro-1H-isoquinolin-4-ylidenemethyl)-amino]-phenyl}-N-methyl-acetamide]: the IC50 stood at 36 µM.

Turning to `Cc1cc(NS(=O)(=O)c2ccc(NC=C3C(=O)NC(=O)c4ccccc43)cc2)no1` [Example 556, 4-[(1,3-Dioxo-2,3-dihydro-1H-isoquinolin-4-ylidenemethyl)-amino]-N-(5-methyl-isoxazol-3-yl)-benzenesulfonamide], the IC50 was 48.4 µM.

`O=C(O)C=Cc1ccc(NC=C2C(=O)NC(=O)c3ccccc32)cc1` [Example 557, 3-{4-[(1,3-Dioxo-2,3-dihydro-1H-isoquinolin-4-ylidenemethyl)-amino]-phenyl}-acrylic acid]: the IC50 was found to be 19.4 µM.

For the compound `O=C(O)CCCc1ccc(NC=C2C(=O)NC(=O)c3ccccc32)cc1` [Example 558, 4-{4-[(1,3-Dioxo-2,3-dihydro-1H-isoquinolin-4-ylidenemethyl)-amino]-phenyl}-butyric acid], the half-inhibitory concentration (IC50) is 27.4 µM.

For `O=C1NC(=O)c2ccccc2C1=CNc1ccc(O)cc1` [Example 559, 4-[(4-Hydroxy-phenylamino)-methylene]-4H-isoquinoline-1,3-dione], the IC50 worked out at 19.3 µM.

As to `O=C1NC(=O)c2ccccc2C1=CNc1ccc(C(=O)O)c(O)c1` [Example 560, 4-[(1,3-Dioxo-2,3-dihydro-1H-isoquinolin-4-ylidenemethyl)-amino]-2-hydroxy-benzoic acid], the concentration for half-maximal inhibition (IC50) was 17.3 µM.

For `COc1ccc(NC=C2C(=O)NC(=O)c3ccccc32)cc1O` [Example 561, 4-[(3-Hydroxy-4-methoxy-phenylamino)-methylene]-4H-isoquinoline-1,3-dione], the half-inhibitory concentration (IC50) worked out at 45.2 µM.

As to `O=C1NC(=O)c2ccccc2C1=CNc1ccc(O)cc1C(=O)O` [Example 562, 2-[(1,3-Dioxo-2,3-dihydro-1H-isoquinolin-4-ylidenemethyl)-amino]-5-hydroxy-benzoic acid], the half-inhibitory concentration (IC50) was 15.9 µM.

For `O=C1NC(=O)c2ccccc2C1=CNc1c(O)cccc1O` [Example 565, 4-[(2,6-Dihydroxy-phenylamino)-methylene]-4H-isoquinoline-1,3-dione], the half-maximal inhibitory concentration (IC50) was determined as 38 µM.

Take `O=C1NC(=O)c2ccccc2C1=CNC(Cc1ccc(O)c(O)c1)C(=O)O` (stereo not shown) [Example 566, 3-(3,4-Dihydroxy-phenyl)-2-[(1,3-dioxo-2,3-dihydro-1H-isoquinolin-4-ylidenemethyl)-amino]-propionic acid]: the IC50 worked out at 29.7 µM.

Turning to `O=C1NC(=O)c2ccccc2C1=CNc1ccc(O)cc1O` [Example 568, 4-[(2,4-Dihydroxy-phenylamino)-methylene]-4H-isoquinoline-1,3-dione], the concentration for half-maximal inhibition (IC50) was found to be 16.9 µM.

With `O=C1NC(=O)c2ccccc2C1=CNc1cc(Cl)c([N+](=O)[O-])cc1O` [Example 570, 4-[(5-Chloro-2-hydroxy-4-nitro-phenylamino)-methylene]-4H-isoquinoline-1,3-dione], the half-inhibitory concentration (IC50) was found to be 22 µM.

For `O=C1NC(=O)c2ccccc2C1=CNc1ccc(N2CCN(CCN3CCOCC3)CC2)cc1` [Example 571, 4-({4-[4-(2-Morpholin-4-yl-ethyl)-piperazin-1-yl]-phenylamino}-methylene)-4H-isoquinoline-1,3-dione], the IC50 was 33.8 µM.

In the case of `O=C1NC(=O)c2ccccc2C1=CNc1ccc(N2CCN(CCN3CCCC3)CC2)cc1` [Example 572, 4-({4-[4-(2-Pyrrolidin-1-yl-ethyl)-piperazin-1-yl]-phenylamino}-methylene)-4H-isoquinoline-1,3-dione], the concentration for half-maximal inhibition (IC50) is 37 µM.

Regarding `Nc1cccc(CNC=C2C(=O)NC(=O)c3ccccc32)c1` [Example 573, 4-[(3-Amino-benzylamino)-methylene]-4H-isoquinoline-1,3-dione], the half-inhibitory concentration (IC50) was 30.6 µM.

In the case of `NCc1cccc(CNC=C2C(=O)NC(=O)c3ccccc32)c1` [Example 578, 4-[(3-Aminomethyl-benzylamino)-methylene]-4H-isoquinoline-1,3-dione], the 50% inhibitory concentration (IC50) was determined as 23.7 µM.

As for `O=C1NC(=O)c2ccccc2C1=CNCc1cccc(NS(=O)(=O)c2cccs2)c1` [Example 579, Thiophene-2-sulfonic acid (3-{[(1,3-dioxo-2,3-dihydro-1H-isoquinolin-4-ylidenemethyl)-amino]-methyl}-phenyl)-amide], the IC50 worked out at 20.4 µM.

Take `CC(C)S(=O)(=O)Nc1cccc(CNC=C2C(=O)NC(=O)c3ccccc32)c1` [Example 580, Propane-2-sulfonic acid (3-{[(1,3-dioxo-2,3-dihydro-1H-isoquinolin-4-ylidenemethyl)-amino]-methyl}-phenyl)-amide]: the IC50 stood at 48.7 µM.
